Laboratory results: patent US20220264878A1, “HERBICIDAL COMPOSITION CONTAINING R-TYPE PYRIDYLOXY CARBOXYLIC ACID DERIVATIVE AND USE THEREOF” (Qingdao Kingagroot Chemical Compound Co., Ltd., priority 2019, published 2022)

Key:
Experiment in all cases: Post-emergence foliage spray, pot culture, fresh weight inhibition (Tables 1-48, 51-98, 101-148; 24 days)
Assay type in all cases: in vivo
Ammannia arenaria = settings: Table 103
Summary of the method: (§1)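 Greenhouse pot-grown weeds (15 per pot, 3 pots, 4 replicates) at the 5–6-leaf (grasses) or 6–7-leaf (broadleaf) stage were sprayed once on foliage at 450 kg/ha spray volume, 0.3 MPa. Acetone solutions were diluted in 0.1% Tween-80. Aboveground fresh weight versus blank control was recorded after 24 days.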

Sonchus oleraceus L. = tested on: Sonchus oleraceus L.
Summary of the method: as §1

Solanum nigrum = tested on: Solanum nigrum
Summary of the method: as §1

Beckmannia syzigachne = tested on: Beckmannia syzigachne
Summary of the method: as §1

Setaria faberi = tested on: Setaria faberi
Summary of the method: as §1

Sinapis arvensis = tested on: Sinapis arvensis
Summary of the method: as §1

Chloris virgata = tested on: Chloris virgata
Summary of the method: as §1

Cirsium setosum = settings: Table 111
Summary of the method: as §1

Acalypha australis = tested on: Acalypha australis
Summary of the method: as §1

Xanthium strumarium = tested on: Xanthium strumarium
Summary of the method: as §1

Stellaria media = settings: Table 105
Summary of the method: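 Pot-grown weeds were thinned to 15 per pot (45 per treatment) and sprayed on foliage at the 5–6-leaf stage for grasses or the 6–7-leaf stage for broadleaves. Agents were dissolved in acetone with 0.1% Tween-80 and applied at 450 kg/ha spray volume and 0.3 MPa. Plants were then kept in a greenhouse. Above-ground fresh weight of survivors, with dead plants counted as zero, gave inhibition versus a solvent/emulsifier blank.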

Abutilon theophrasti = tested on: Abutilon theophrasti
Summary of the method: as §1

Capsella bursa-pastoris = tested on: Capsella bursa-pastoris
Summary of the method: as §1

Sonchus arvensis = tested on: Sonchus arvensis
Summary of the method: as §1

Ipomoea purpurea = settings: Table 98
Summary of the method: as §1

Conyza Canadensis = tested on: Conyza Canadensis
Summary of the method: as §1

Setaria glauca = settings: Table 84
Summary of the method: as §1

C[C@@H](Oc1nc(F)c(Cl)c(N)c1Cl)C(=O)[O-].[Na+] [Compound A3, A1 sodium salt]
Control effect (%) of A applied alone in corresponding dose (Ammannia arenaria; 75 g a.i./ha): 30.4%
Control effect (%) of A applied alone in corresponding dose (Ammannia arenaria; 150 g a.i./ha): 66.2%
Control effect (%) of A applied alone in corresponding dose (Sonchus oleraceus L.; A 75 g a.i./ha): 33.8%
Control effect (%) of A applied alone in corresponding dose (Sonchus oleraceus L.; A 150 g a.i./ha): 55.5%
Control effect (%) of A applied alone in corresponding dose (Solanum nigrum; A 75 g a.i./ha): 16.9%
Control effect (%) of A applied alone in corresponding dose (Solanum nigrum; A 150 g a.i./ha): 37.5%
Control effect (%) of A applied alone in corresponding dose (Beckmannia syzigachne; A 75 g a.i./ha): 23.0%
Control effect (%) of A applied alone in corresponding dose (Beckmannia syzigachne; A 150 g a.i./ha): 42.8%
Control effect (%) of A applied alone in corresponding dose (Setaria faberi; A 30 g a.i./ha): 32.5%
Control effect (%) of A applied alone in corresponding dose (Setaria faberi; A 60 g a.i./ha): 55.4%
Control effect (%) of A applied alone in corresponding dose (Sinapis arvensis; A 15 g a.i./ha): 33.2%
Control effect (%) of A applied alone in corresponding dose (Sinapis arvensis; A 30 g a.i./ha): 72.7%
Control effect (%) of A applied alone in corresponding dose (Chloris virgata; A 75 g a.i./ha): 22.0%
Control effect (%) of A applied alone in corresponding dose (Chloris virgata; A 150 g a.i./ha): 48.3%
Control effect (%) of A applied alone in corresponding dose (Cirsium setosum; 30 g a.i./ha): 31.5%
Control effect (%) of A applied alone in corresponding dose (Cirsium setosum; 60 g a.i./ha): 64.3%
Control effect (%) of A applied alone in corresponding dose (Acalypha australis; A 75 g a.i./ha): 20.7%
Control effect (%) of A applied alone in corresponding dose (Acalypha australis; A 150 g a.i./ha): 51.6%
Control effect (%) of A applied alone in corresponding dose (Xanthium strumarium; A 7.5 g a.i./ha): 40.8%
Control effect (%) of A applied alone in corresponding dose (Xanthium strumarium; A 15 g a.i./ha): 77.2%
Control effect (%) of A applied alone in corresponding dose (Stellaria media; 7.5 g a.i./ha): 34.1%
Control effect (%) of A applied alone in corresponding dose (Stellaria media; 15 g a.i./ha): 67.9%

CC(C)N1C(=O)c2ccccc2NS1(=O)=O [bentazone]
Control effect (%) of B applied alone in corresponding dose (Abutilon theophrasti; bentazone 18.75 g a.i./ha): 5.9%
Control effect (%) of B applied alone in corresponding dose (Abutilon theophrasti; bentazone 37.5 g a.i./ha): 11.8%
Control effect (%) of B applied alone in corresponding dose (Abutilon theophrasti; bentazone 75 g a.i./ha): 49.0%
Control effect (%) of B applied alone in corresponding dose (Abutilon theophrasti; bentazone 150 g a.i./ha): 69.1%
Control effect (%) of B applied alone in corresponding dose (Xanthium strumarium; B 18.75 g a.i./ha): 10.9%
Control effect (%) of B applied alone in corresponding dose (Xanthium strumarium; B 37.5 g a.i./ha): 16.1%
Control effect (%) of B applied alone in corresponding dose (Xanthium strumarium; B 75 g a.i./ha): 46.6%
Control effect (%) of B applied alone in corresponding dose (Xanthium strumarium; B 150 g a.i./ha): 76.5%

Cc1nn(C)cc1C(=O)Oc1c(C(=O)c2ccc(C(F)(F)F)cc2S(C)(=O)=O)c(C)nn1C [bipyrazone]
Control effect (%) of B applied alone in corresponding dose (Sinapis arvensis; B 1.875 g a.i./ha): 9.9%
Control effect (%) of B applied alone in corresponding dose (Sinapis arvensis; B 3.75 g a.i./ha): 23.8%
Control effect (%) of B applied alone in corresponding dose (Sinapis arvensis; B 7.5 g a.i./ha): 50.8%
Control effect (%) of B applied alone in corresponding dose (Sinapis arvensis; B 15 g a.i./ha): 83.7%
Control effect (%) of B applied alone in corresponding dose (Capsella bursa-pastoris; bipyrazone 18.75 g a.i./ha): 2.9%
Control effect (%) of B applied alone in corresponding dose (Capsella bursa-pastoris; bipyrazone 37.5 g a.i./ha): 12.9%
Control effect (%) of B applied alone in corresponding dose (Capsella bursa-pastoris; bipyrazone 75 g a.i./ha): 51.1%
Control effect (%) of B applied alone in corresponding dose (Capsella bursa-pastoris; bipyrazone 150 g a.i./ha): 80.3%

CCOc1nc(F)cc2nc(S(=O)(=O)Nc3c(Cl)cccc3C(=O)OC)nn12 [cloransulam-methyl]
Control effect (%) of B applied alone in corresponding dose (Sonchus arvensis; cloransulam-methyl 1.875 g a.i./ha): 6.5%
Control effect (%) of B applied alone in corresponding dose (Sonchus arvensis; cloransulam-methyl 3.75 g a.i./ha): 15.0%
Control effect (%) of B applied alone in corresponding dose (Sonchus arvensis; cloransulam-methyl 7.5 g a.i./ha): 52.8%
Control effect (%) of B applied alone in corresponding dose (Sonchus arvensis; cloransulam-methyl 15 g a.i./ha): 72.9%
Control effect (%) of B applied alone in corresponding dose (Cirsium setosum; 1.875 g a.i./ha): 13.6%
Control effect (%) of B applied alone in corresponding dose (Cirsium setosum; 3.75 g a.i./ha): 23.1%
Control effect (%) of B applied alone in corresponding dose (Cirsium setosum; 7.5 g a.i./ha): 53.8%
Control effect (%) of B applied alone in corresponding dose (Cirsium setosum; 15 g a.i./ha): 71.9%

CC(C)N(C)S(=O)(=O)NC(=O)c1cc(-n2c(=O)cc(C(F)(F)F)n(C)c2=O)c(F)cc1Cl [saflufenacil]
Control effect (%) of B applied alone in corresponding dose (Sonchus oleraceus L.; B 3.75 g a.i./ha): 5.4%
Control effect (%) of B applied alone in corresponding dose (Sonchus oleraceus L.; B 7.5 g a.i./ha): 13.9%
Control effect (%) of B applied alone in corresponding dose (Sonchus oleraceus L.; B 15 g a.i./ha): 40.9%
Control effect (%) of B applied alone in corresponding dose (Sonchus oleraceus L.; B 30 g a.i./ha): 76.6%
Control effect (%) of B applied alone in corresponding dose (Ipomoea purpurea; 3.75 g a.i./ha): 7.9%
Control effect (%) of B applied alone in corresponding dose (Ipomoea purpurea; 7.5 g a.i./ha): 16.0%
Control effect (%) of B applied alone in corresponding dose (Ipomoea purpurea; 15 g a.i./ha): 41.3%
Control effect (%) of B applied alone in corresponding dose (Ipomoea purpurea; 30 g a.i./ha): 75.9%
Control effect (%) of B applied alone in corresponding dose (Conyza Canadensis; saflufenacil 3.75 g a.i./ha): 3.0%
Control effect (%) of B applied alone in corresponding dose (Conyza Canadensis; saflufenacil 7.5 g a.i./ha): 11.9%
Control effect (%) of B applied alone in corresponding dose (Conyza Canadensis; saflufenacil 15 g a.i./ha): 39.2%
Control effect (%) of B applied alone in corresponding dose (Conyza Canadensis; saflufenacil 30 g a.i./ha): 76.5%

Cc1c(C(=O)c2cnn(C)c2O)ccc(S(C)(=O)=O)c1C1=NOCC1 [topramezone]
Control effect (%) of B applied alone in corresponding dose (Setaria glauca; 1.875 g a.i./ha): 7.3%
Control effect (%) of B applied alone in corresponding dose (Setaria glauca; 3.75 g a.i./ha): 10.6%
Control effect (%) of B applied alone in corresponding dose (Setaria glauca; 7.5 g a.i./ha): 35.8%
Control effect (%) of B applied alone in corresponding dose (Setaria glauca; 15 g a.i./ha): 72.3%
Control effect (%) of B applied alone in corresponding dose (Setaria faberi; B 1.875 g a.i./ha): 3.2%
Control effect (%) of B applied alone in corresponding dose (Setaria faberi; B 3.75 g a.i./ha): 11.7%
Control effect (%) of B applied alone in corresponding dose (Setaria faberi; B 7.5 g a.i./ha): 36.5%
Control effect (%) of B applied alone in corresponding dose (Setaria faberi; B 15 g a.i./ha): 75.4%
